Values belong to the molecule of their own block, whether it stands above or below them.
How the values were obtained:
HuP-T4 = experiment: cells; type: functional, cell-based; settings: Homo sapiens;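 also: cell viability assay measuring how much HuP-T4 cell growth is inhibited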
Description: SANGER: Inhibition of human HuP-T4 cell growth in a cell viability assay.

GCT = experiment: cells; type: functional, cell-based; settings: Homo sapiens;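 also: GCT cell line proliferation inhibition, read out with a cell viability assay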
Description: SANGER: Inhibition of human GCT cell growth in a cell viability assay.

SK-MEL-28 = experiment: cells; type: functional, cell-based; settings: Homo sapiens;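 also: growth inhibition of human SK-MEL-28 cells, read out with a cell viability assay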
Description: SANGER: Inhibition of human SK-MEL-28 cell growth in a cell viability assay.

HCT-15 = experiment: cells; type: functional, cell-based; settings: Homo sapiens;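 also: cell viability readout, IC50 reflecting suppression of HCT-15 cell growth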
Description: SANGER: Inhibition of human HCT-15 cell growth in a cell viability assay.

U2OS = experiment: cells; type: functional, cell-based, U-2-OS; settings: Homo sapiens;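 also: growth inhibition of human U-2-OS cells, determined with a cell viability assay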
Description: SANGER: Inhibition of human U-2-OS cell growth in a cell viability assay.

HuCCT-1 = experiment: cells; type: functional, cell-based, HuCCT1; settings: Homo sapiens;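 also: growth inhibition of HuCCT-1 cells, read out by a cell viability assay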
Description: SANGER: Inhibition of human HuCCT1 cell growth in a cell viability assay.

A 172 = experiment: cells; type: functional, cell-based; settings: Homo sapiens;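 also: growth inhibition of A172 cells, measured with a cell viability readout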
Description: SANGER: Inhibition of human A172 cell growth in a cell viability assay.

KYSE-520 cell line = experiment: cells; type: functional, cell-based; settings: Homo sapiens;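 also: growth inhibition of human KYSE-520 cells, read out with a viability assay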
Description: SANGER: Inhibition of human KYSE-520 cell growth in a cell viability assay.

A-375 = experiment: cells; type: functional, cell-based; settings: Homo sapiens;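 also: growth inhibition of A375 cells, read out with a cell viability assay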
Description: SANGER: Inhibition of human A375 cell growth in a cell viability assay.

HC-1 = experiment: cells; type: functional, cell-based, Homo sapiens; settings: Homo sapiens, HC-1;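 also: growth inhibition of HC-1 cells measured by a cell viability assay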
Description: SANGER: Inhibition of human HC-1 cell growth in a cell viability assay.

KYSE-70 cell line = experiment: cells; type: functional, cell-based; settings: Homo sapiens;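 also: cell viability assay read-out, with IC50 expressing suppression of KYSE-70 cell growth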
Description: SANGER: Inhibition of human KYSE-70 cell growth in a cell viability assay.

IGR-1 = experiment: cells; type: functional, cell-based; settings: Homo sapiens;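 also: growth inhibition of human IGR-1 cells, read out with a cell viability assay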
Description: SANGER: Inhibition of human IGR-1 cell growth in a cell viability assay.

RVH-421 = experiment: cells; type: functional, cell-based; settings: Homo sapiens
Description: SANGER: Inhibition of human RVH-421 cell growth in a cell viability assay.

LCLC-103H cell line = experiment: cells; type: functional, cell-based; settings: Homo sapiens
Description: SANGER: Inhibition of human LCLC-103H cell growth in a cell viability assay.

EFO-21 = experiment: cells; type: functional, cell-based; settings: Homo sapiens;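 also: growth inhibition of EFO-21 cells measured with a viability assay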
Description: SANGER: Inhibition of human EFO-21 cell growth in a cell viability assay.

RMG-I = experiment: cells; type: functional, cell-based; settings: Homo sapiens;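 also: growth inhibition of human RMG-I cells, read out with a cell viability assay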
Description: SANGER: Inhibition of human RMG-I cell growth in a cell viability assay.

COLO-792 = experiment: cells; type: functional, cell-based; settings: Homo sapiens
Description: SANGER: Inhibition of human COLO-792 cell growth in a cell viability assay.

SF-295 = experiment: cells; type: functional, cell-based; settings: Homo sapiens;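 also: growth inhibition of SF-295 cells, read out with a cell viability assay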
Description: SANGER: Inhibition of human SF295 cell growth in a cell viability assay.

SW837 = experiment: cells; type: functional, cell-based; settings: Homo sapiens;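 also: growth inhibition of SW837 cells, determined with a cell viability assay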
Description: SANGER: Inhibition of human SW837 cell growth in a cell viability assay.

BEN = experiment: cells; type: functional, cell-based; settings: Homo sapiens;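 also: growth inhibition of the BEN cell line, read out with a cell viability assay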
Description: SANGER: Inhibition of human BEN cell growth in a cell viability assay.

OE19 = experiment: cells; type: functional, cell-based; settings: Homo sapiens;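 also: growth inhibition of OE19 cells, measured through a cell viability read-out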
Description: SANGER: Inhibition of human OE19 cell growth in a cell viability assay.

MDA-MB-157 = experiment: cells; type: functional, cell-based; settings: Homo sapiens
Description: SANGER: Inhibition of human MDA-MB-157 cell growth in a cell viability assay.

CHL-1 = experiment: cells; type: functional, cell-based; settings: Homo sapiens;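 also: cell growth inhibition, read out with a cell viability assay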
Description: SANGER: Inhibition of human CHL-1 cell growth in a cell viability assay.

SK-HEP1 = experiment: cells; type: functional, cell-based, SK-HEP-1; settings: Homo sapiens;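 also: cell viability readout used to quantify reduction in proliferation of human SK-HEP-1 cells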
Description: SANGER: Inhibition of human SK-HEP-1 cell growth in a cell viability assay.

HCC1954 = experiment: cells; type: functional, cell-based; settings: Homo sapiens;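 also: growth inhibition of human HCC1954 cells, read out with a cell viability assay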
Description: SANGER: Inhibition of human HCC1954 cell growth in a cell viability assay.

MKN-1 = experiment: cells; type: functional, cell-based; settings: Homo sapiens;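 also: growth inhibition of human MKN1 cells, read out by a cell viability measurement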
Description: SANGER: Inhibition of human MKN1 cell growth in a cell viability assay.

G-401 = experiment: cells; type: functional, cell-based; settings: Homo sapiens
Description: SANGER: Inhibition of human G-401 cell growth in a cell viability assay.

ABC-1 = experiment: cells; type: functional, cell-based; settings: Homo sapiens;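 also: growth inhibition of human ABC-1 cells, read out by a cell viability assay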
Description: SANGER: Inhibition of human ABC-1 cell growth in a cell viability assay.

HO-1-N-1 = experiment: cells; type: functional, cell-based; settings: Homo sapiens;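 also: growth inhibition of human HO-1-N-1 cells, read out with a cell viability assay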
Description: SANGER: Inhibition of human HO-1-N-1 cell growth in a cell viability assay.

SK-MEL3 = experiment: cells; type: functional, cell-based, SK-MEL-3; settings: Homo sapiens;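 also: growth inhibition of human SK-MEL-3 cells, read out with a cell viability assay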
Description: SANGER: Inhibition of human SK-MEL-3 cell growth in a cell viability assay.

CAL-51 = experiment: cells; type: functional, cell-based; settings: Homo sapiens;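 also: human CAL-51 cell line, growth inhibition read out via a cell viability assay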
Description: SANGER: Inhibition of human CAL-51 cell growth in a cell viability assay.

MEL-JUSO = experiment: cells; type: functional, cell-based; settings: Homo sapiens;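 also: growth inhibition of human MEL-JUSO cells, read out with a cell viability assay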
Description: SANGER: Inhibition of human MEL-JUSO cell growth in a cell viability assay.

SK-MES-1 = experiment: cells; type: functional, cell-based; settings: Homo sapiens;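 also: growth inhibition of human SK-MES-1 cells, read out with a cell viability assay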
Description: SANGER: Inhibition of human SK-MES-1 cell growth in a cell viability assay.

PANC-03-27 = experiment: cells; type: functional, cell-based; settings: Homo sapiens
Description: SANGER: Inhibition of human PANC-03-27 cell growth in a cell viability assay.

KP-4 = experiment: cells; type: functional, cell-based; settings: Homo sapiens;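 also: human KP-4 cells, with growth inhibition read out through a cell viability assay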
Description: SANGER: Inhibition of human KP-4 cell growth in a cell viability assay.

NCI-H1693 = experiment: cells; type: functional, cell-based; settings: Homo sapiens;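 also: growth inhibition of the human cell line, read out with a cell viability assay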
Description: SANGER: Inhibition of human NCI-H1693 cell growth in a cell viability assay.

23132-87 = experiment: cells; type: functional, cell-based; settings: Homo sapiens
Description: SANGER: Inhibition of human 23132-87 cell growth in a cell viability assay.

MDA-MB-361 = experiment: cells; type: functional, cell-based; settings: Homo sapiens
SNU-449 = experiment: cells; type: functional, cell-based; settings: Homo sapiens
Description: SANGER: Inhibition of human SNU-449 cell growth in a cell viability assay.

CaR-1 = experiment: cells; type: functional, cell-based; settings: Homo sapiens;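 also: growth inhibition of human CaR-1 cancer cells, read out with a cell viability assay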
Description: SANGER: Inhibition of human CaR-1 cell growth in a cell viability assay.

786-0 = experiment: cells; type: functional, cell-based; settings: Homo sapiens
Description: SANGER: Inhibition of human 786-0 cell growth in a cell viability assay.

CHP-212 = experiment: cells; type: functional, cell-based; settings: Homo sapiens
Description: SANGER: Inhibition of human CHP-212 cell growth in a cell viability assay.

NCI-H1651 = experiment: cells; type: functional, cell-based; settings: Homo sapiens;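 also: Read-out is a cell viability assay, with IC50 expressing inhibition of NCI-H1651 cell growth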
Description: SANGER: Inhibition of human NCI-H1651 cell growth in a cell viability assay.

SJRH30 = experiment: cells; type: functional, cell-based; settings: Homo sapiens;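 also: growth inhibition of human SJRH30 cells, read out with a cell viability assay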
Description: SANGER: Inhibition of human SJRH30 cell growth in a cell viability assay.

BC1 cell line = experiment: SANGER: Inhibition of human BC-1 cell growth in a cell viability assay.; type: functional, cell-based; settings: Homo sapiens, BC1

SMILES: NC(=O)Nc1cc(-c2cccc(F)c2)sc1C(=O)N[C@H]1CCCNC1 [AZD-7762]
IC50 (HuP-T4): 469 nM
IC50 (GCT): 649 nM
IC50 (SK-MEL-28): > 2000 nM
IC50 (HCT-15): > 2000 nM
IC50 (U2OS): 158 nM
IC50 (HuCCT-1): 708 nM
IC50 (A 172): 692 nM
IC50 (KYSE-520 cell line): 826 nM
IC50 (A-375): 499 nM
IC50 (HC-1): 521 nM
IC50 (KYSE-70 cell line): > 2000 nM
IC50 (IGR-1): > 2000 nM
IC50 (RVH-421): 1190 nM
IC50 (LCLC-103H cell line): 980 nM
IC50 (EFO-21): > 2000 nM
IC50 (RMG-I): 1910 nM
IC50 (COLO-792): > 2000 nM
IC50 (SF-295): 298 nM
IC50 (SW837): > 2000 nM
IC50 (BEN): > 2000 nM
IC50 (OE19): > 2000 nM
IC50 (MDA-MB-157): 86.6 nM
IC50 (CHL-1): 526 nM
IC50 (SK-HEP1): > 2000 nM
IC50 (HCC1954): > 2000 nM
IC50 (MKN-1): 350 nM
IC50 (G-401): > 2000 nM
IC50 (ABC-1): 261 nM
IC50 (HO-1-N-1): 1140 nM
IC50 (SK-MEL3): > 2000 nM
IC50 (CAL-51): 514 nM
IC50 (MEL-JUSO): 131 nM
IC50 (SK-MES-1): 443 nM
IC50 (PANC-03-27): 143 nM
IC50 (KP-4): 1460 nM
IC50 (NCI-H1693): 1230 nM
IC50 (23132-87): 683 nM
IC50 (MDA-MB-361): 299 nM
IC50 (SNU-449): > 2000 nM
IC50 (CaR-1): 1870 nM
IC50 (786-0): 388 nM
IC50 (CHP-212): 198 nM
IC50 (NCI-H1651): 1090 nM

SMILES: Cc1ccc(-n2nc(C(C)(C)C)cc2NC(=O)Nc2ccc(OCCN3CCOCC3)c3ccccc23)cc1 [DORAMAPIMOD]
IC50 (HuP-T4): > 10000 nM
IC50 (GCT): > 10000 nM
IC50 (SK-MEL-28): > 10000 nM
IC50 (HCT-15): > 10000 nM
IC50 (U2OS): > 10000 nM
IC50 (HuCCT-1): > 10000 nM
IC50 (A 172): > 10000 nM
IC50 (KYSE-520 cell line): > 10000 nM
IC50 (A-375): > 10000 nM
IC50 (KYSE-70 cell line): > 10000 nM
IC50 (IGR-1): > 10000 nM
IC50 (RVH-421): > 10000 nM
IC50 (LCLC-103H cell line): > 10000 nM
IC50 (EFO-21): > 10000 nM
IC50 (RMG-I): > 10000 nM
IC50 (COLO-792): > 10000 nM
IC50 (SF-295): > 10000 nM
IC50 (SW837): > 10000 nM
IC50 (BEN): > 10000 nM
IC50 (OE19): > 10000 nM
IC50 (MDA-MB-157): > 10000 nM
IC50 (CHL-1): > 10000 nM
IC50 (SK-HEP1): > 10000 nM
IC50 (HCC1954): > 10000 nM
IC50 (MKN-1): > 10000 nM
IC50 (G-401): > 10000 nM
IC50 (ABC-1): > 10000 nM
IC50 (HO-1-N-1): > 10000 nM
IC50 (SK-MEL3): > 10000 nM
IC50 (CAL-51): > 10000 nM
IC50 (MEL-JUSO): > 10000 nM
IC50 (SK-MES-1): > 10000 nM
IC50 (PANC-03-27): > 10000 nM
IC50 (KP-4): > 10000 nM
IC50 (NCI-H1693): > 10000 nM
IC50 (23132-87): > 10000 nM
IC50 (MDA-MB-361): > 10000 nM
IC50 (SNU-449): > 10000 nM
IC50 (SJRH30): > 10000 nM
IC50 (CaR-1): > 10000 nM
IC50 (786-0): > 10000 nM
IC50 (CHP-212): > 10000 nM
IC50 (NCI-H1651): > 10000 nM

IC50 (HCT-15): 334 nM
IC50 (HuCCT-1): 179 nM
IC50 (SF-295): 273 nM
IC50 (BEN): > 512 nM
IC50 (HO-1-N-1): > 512 nM
IC50 (PANC-03-27): 160 nM
IC50 (23132-87): > 512 nM
IC50 (SJRH30): > 512 nM
SMILES: CO[C@@H]1[C@H](N(C)C(=O)c2ccccc2)C[C@H]2O[C@]1(C)n1c3ccccc3c3c4c(c5c6ccccc6n2c5c31)C(=O)NC4 [MIDOSTAURIN]
IC50 (BC1 cell line): > 512 nM

SMILES: CC1(C)CCC(c2ccc(Cl)cc2)=C(CN2CCN(c3ccc(C(=O)NS(=O)(=O)c4ccc(N[C@H](CCN5CCOCC5)CSc5ccccc5)c(S(=O)(=O)C(F)(F)F)c4)cc3)CC2)C1 [NAVITOCLAX]
IC50 (HuP-T4): > 2000 nM
IC50 (GCT): > 2000 nM
IC50 (SK-MEL-28): > 2000 nM
IC50 (U2OS): > 2000 nM
IC50 (HuCCT-1): > 2000 nM
IC50 (A 172): > 2000 nM
IC50 (KYSE-520 cell line): > 2000 nM
IC50 (A-375): > 2000 nM
IC50 (KYSE-70 cell line): > 2000 nM
IC50 (IGR-1): > 2000 nM
IC50 (RVH-421): > 2000 nM
IC50 (LCLC-103H cell line): > 2000 nM
IC50 (EFO-21): > 2000 nM
IC50 (RMG-I): 495 nM
IC50 (COLO-792): 1200 nM
IC50 (SF-295): > 2000 nM
IC50 (SW837): > 2000 nM
IC50 (BEN): 240 nM
IC50 (OE19): > 2000 nM
IC50 (MDA-MB-157): > 2000 nM
IC50 (CHL-1): > 2000 nM
IC50 (SK-HEP1): > 2000 nM
IC50 (HCC1954): > 2000 nM
IC50 (MKN-1): > 2000 nM
IC50 (G-401): > 2000 nM
IC50 (ABC-1): > 2000 nM
IC50 (HO-1-N-1): > 2000 nM
IC50 (SK-MEL3): > 2000 nM
IC50 (CAL-51): > 2000 nM
IC50 (SK-MES-1): > 2000 nM
IC50 (PANC-03-27): > 2000 nM
IC50 (KP-4): > 2000 nM
IC50 (NCI-H1693): > 2000 nM
IC50 (MDA-MB-361): > 2000 nM
IC50 (SNU-449): > 2000 nM
IC50 (SJRH30): > 2000 nM
IC50 (CaR-1): > 2000 nM
IC50 (786-0): > 2000 nM
IC50 (CHP-212): > 2000 nM
IC50 (NCI-H1651): > 2000 nM
